According to the CheMixHub viscosity set:

Assay: xn = mol fraction of the nth substance listed

CC(=O)CC(C)=O + CCCO
303.15 K, 101 kPa
Settings | viscosity [mPa·s]
x1 = 0.05 | 1.453
x1 = 0.1 | 1.271
x1 = 0.2999 | 0.922
x1 = 0.4999 | 0.769
x1 = 0.6999 | 0.697
x1 = 0.8994 | 0.673
x1 = 0.9487 | 0.667

CC(=O)CC(C)=O + CCC(C)(C)O
298.15 K, 101 kPa
Settings | viscosity [mPa·s]
x1 = 0.1 | 2.481
x1 = 0.2 | 1.809
x1 = 0.3 | 1.39
x1 = 0.4 | 1.138
x1 = 0.5 | 0.987
x1 = 0.6 | 0.893
x1 = 0.7 | 0.827
x1 = 0.8 | 0.776
x1 = 0.9 | 0.733

Cc1ccc(C(C)C)cc1 + COC(C)(C)C
298.15 K, 101.33 kPa
Settings | viscosity [mPa·s]
x2 = 0.0616 | 0.7751
x2 = 0.1556 | 0.7225
x2 = 0.3301 | 0.6338
x2 = 0.4987 | 0.5524
x2 = 0.5665 | 0.5253
x2 = 0.6911 | 0.4605
x2 = 0.7665 | 0.4272
x2 = 0.8304 | 0.3998
x2 = 0.8734 | 0.3814
x2 = 0.9298 | 0.3583
x2 = 0.9644 | 0.3467

CC(C)(C)Br + CC(C)CO
viscosity [mPa·s], 101.3 kPa
Settings | x1 = 0.1028 | x1 = 0.2047 | x1 = 0.3013 | x1 = 0.4041 | x1 = 0.5068 | x1 = 0.6029 | x1 = 0.7033 | x1 = 0.8031 | x1 = 0.905
298.15 K | 2.582 | 2.021 | 1.64 | 1.351 | 1.138 | 0.9943 | 0.8866 | 0.8146 | 0.757
313.15 K | 1.718 | 1.405 | 1.168 | 0.9825 | 0.8486 | 0.7553 | 0.688 | 0.6382 | 0.6044

CN(C)c1ccccc1 + CCC(=O)O
viscosity [mPa·s], 101 kPa
Settings | x2 = 0.1014 | x2 = 0.2025 | x2 = 0.305 | x2 = 0.3966 | x2 = 0.5057 | x2 = 0.6027 | x2 = 0.6922 | x2 = 0.8012 | x2 = 0.8905 | x2 = 0.8987
298.15 K | 1.364 | 1.416 | 1.478 | 1.527 | 1.583 | 1.651 | 1.69 | 1.657 | 1.467 | –
303.15 K | – | – | – | – | – | – | – | – | – | 1.225

CN(C)c1ccccc1 + CC(=O)c1ccccc1
viscosity [mPa·s], 101 kPa
Settings | 303.15 K | 308.15 K
x1 = 0.0856 | 1.505 | 1.398
x1 = 0.1502 | 1.495 | 1.387
x1 = 0.2141 | 1.48 | 1.376
x1 = 0.2852 | 1.461 | 1.361
x1 = 0.3521 | 1.442 | 1.346
x1 = 0.4201 | 1.42 | 1.328
x1 = 0.5026 | 1.392 | 1.305
x1 = 0.5892 | 1.362 | 1.279
x1 = 0.6625 | 1.335 | 1.254
x1 = 0.7211 | 1.313 | 1.234
x1 = 0.7908 | 1.284 | 1.207
x1 = 0.8625 | 1.253 | 1.177
x1 = 0.9204 | 1.222 | 1.151

CN(C)c1ccccc1 + CCCCOCCO
viscosity [mPa·s], 101.3 kPa
Settings | x2 = 0.0991 | x2 = 0.2007 | x2 = 0.3163 | x2 = 0.3988 | x2 = 0.4955 | x2 = 0.5977 | x2 = 0.6989 | x2 = 0.7971 | x2 = 0.8968
298 K | 1.298 | 1.369 | 1.479 | 1.586 | 1.715 | 1.88 | 2.076 | 2.281 | 2.555
303 K | 1.184 | 1.245 | 1.338 | 1.42 | 1.524 | 1.666 | 1.825 | 2.002 | 2.23
308 K | 1.096 | 1.14 | 1.221 | 1.291 | 1.384 | 1.501 | 1.643 | 1.79 | 1.991
313 K | 1.022 | 1.063 | 1.129 | 1.186 | 1.266 | 1.369 | 1.486 | 1.617 | 1.781
318 K | 0.947 | 0.984 | 1.041 | 1.089 | 1.156 | 1.217 | 1.346 | 1.459 | 1.601

O=C1c2ccccc2C(=O)C1(O)O + CCCC[N+](CCCC)(CCCC)CCCC.O=S(=O)([O-])O
Settings | viscosity [mPa·s]
323.15 K, 100 kPa, x2 = 0.571 | 48500

Cn1ccnc1 + CO
viscosity [mPa·s]
Settings | 298.15 K | 308.15 K | 318.15 K
100 kPa, x1 = 0.0511 | 0.6235 | 0.5549 | 0.4923
100 kPa, x1 = 0.1008 | 0.7071 | 0.6136 | 0.5376
100 kPa, x1 = 0.1961 | 0.8597 | 0.7399 | 0.6379
100 kPa, x1 = 0.279 | 0.9763 | 0.8372 | 0.7265
100 kPa, x1 = 0.3965 | 1.159 | 0.9854 | 0.849
100 kPa, x1 = 0.5013 | 1.298 | 1.098 | 0.942
100 kPa, x1 = 0.6101 | 1.429 | 1.203 | 1.029
100 kPa, x1 = 0.6941 | 1.514 | 1.277 | 1.088
100 kPa, x1 = 0.7955 | 1.607 | 1.348 | 1.151
100 kPa, x1 = 0.8414 | 1.645 | 1.377 | 1.174
100 kPa, x1 = 0.9501 | 1.727 | 1.445 | 1.23
101 kPa, x1 = 0.0502 | – | 0.5358 | –
101 kPa, x1 = 0.1011 | – | 0.5959 | –
101 kPa, x1 = 0.2 | – | 0.7153 | –
101 kPa, x1 = 0.3006 | – | 0.8325 | –
101 kPa, x1 = 0.4 | – | 0.9415 | –
101 kPa, x1 = 0.4999 | – | 1.039 | –
101 kPa, x1 = 0.5999 | – | 1.128 | –
101 kPa, x1 = 0.7002 | – | 1.207 | –
101 kPa, x1 = 0.7985 | – | 1.278 | –
101 kPa, x1 = 0.8958 | – | 1.336 | –
101 kPa, x1 = 0.9433 | – | 1.359 | –

CC(=O)CC(C)=O + CCO
303.15 K, 101 kPa
Settings | viscosity [mPa·s]
x1 = 0.05 | 0.896
x1 = 0.0997 | 0.825
x1 = 0.3 | 0.702
x1 = 0.5 | 0.655
x1 = 0.6989 | 0.644
x1 = 0.9 | 0.651
x1 = 0.948 | 0.657

C=CC#N + CCCCCCCO
viscosity [mPa·s], 101.33 kPa
Settings | x1 = 0.1047 | x1 = 0.206 | x1 = 0.3057 | x1 = 0.4142 | x1 = 0.5106 | x1 = 0.6206 | x1 = 0.7044 | x1 = 0.8027 | x1 = 0.9033
298.15 K | 4.015 | 2.967 | 2.212 | 1.627 | 1.238 | 0.891 | 0.705 | 0.54 | 0.425
303.15 K | 3.469 | 2.587 | 1.958 | 1.441 | – | 0.815 | 0.652 | 0.508 | 0.403
308.15 K | 3 | 2.273 | 1.73 | 1.296 | 1.013 | 0.75 | 0.605 | 0.478 | 0.383

C=CC#N + CCCOC(C)=O
viscosity [mPa·s], 101.33 kPa
Settings | x1 = 0.1052 | x1 = 0.1835 | x1 = 0.2994 | x1 = 0.4057 | x1 = 0.4982 | x1 = 0.6097 | x1 = 0.7023 | x1 = 0.8019 | x1 = 0.901
298.15 K | 0.54 | 0.524 | 0.5 | 0.479 | 0.459 | 0.435 | 0.411 | 0.387 | 0.362
303.15 K | 0.504 | 0.489 | 0.47 | 0.452 | 0.434 | 0.411 | 0.391 | 0.368 | 0.345
308.15 K | 0.472 | 0.46 | 0.442 | 0.428 | 0.411 | 0.392 | 0.372 | 0.352 | 0.331

CCCCN(CCCC)CCCC + CCCCCCCC
viscosity [mPa·s], 101 kPa
Settings | x1 = 0.0983 | x1 = 0.1934 | x1 = 0.395 | x1 = 0.4909 | x1 = 0.5915 | x1 = 0.7854 | x1 = 0.897
303.15 K | 0.532 | 0.5833 | 0.7038 | 0.7674 | 0.838 | 0.9861 | 1.079
313.15 K | 0.4675 | 0.5129 | 0.6183 | 0.6727 | 0.734 | 0.8553 | 0.9291

CN(C)c1ccccc1 + CCC(C)=O
viscosity [mPa·s], 101 kPa
Settings | 303.15 K | 308.15 K
x1 = 0.0689 | 0.487 | 0.438
x1 = 0.1256 | 0.574 | 0.516
x1 = 0.1905 | 0.671 | 0.605
x1 = 0.2652 | 0.776 | 0.701
x1 = 0.3256 | 0.853 | 0.773
x1 = 0.3905 | 0.926 | 0.84
x1 = 0.4621 | 0.993 | 0.905
x1 = 0.5362 | 1.048 | 0.958
x1 = 0.6058 | 1.086 | 0.997
x1 = 0.6753 | 1.113 | 1.025
x1 = 0.7416 | 1.129 | 1.045
x1 = 0.8056 | 1.14 | 1.06
x1 = 0.8826 | 1.149 | 1.076

CC(CC(C)(C)C)CC(C)(C)C + Cc1ccc(C)c(C)c1
viscosity [mPa·s], 102 kPa
Settings | x2 = 0.0923 | x2 = 0.2008 | x2 = 0.3004 | x2 = 0.4003 | x2 = 0.4979 | x2 = 0.5999 | x2 = 0.7003 | x2 = 0.7999 | x2 = 0.8992
293.15 K | 1.24 | 1.16 | 1.09 | 1.03 | 0.975 | 0.93 | 0.891 | 0.864 | 0.848
303.15 K | 1.05 | 0.981 | 0.926 | 0.882 | 0.845 | 0.808 | 0.776 | 0.75 | 0.736
313.15 K | 0.906 | 0.855 | 0.813 | 0.774 | 0.739 | 0.709 | 0.679 | 0.657 | 0.647
323.15 K | 0.789 | 0.749 | 0.716 | 0.683 | 0.652 | 0.625 | 0.602 | 0.582 | 0.573
